Test results taken from ChEMBL document CHEMBL1201862, “PubChem BioAssay data set” (2004).
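Five compound concentrations were applied to cells in 96-well plates for 48 hours; endpoints were derived by simple linear interpolation of the resulting dose-response curve. GI50 marks 50% less growth.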 Activity calls are given as the source filed them. Cut-off read from the data, not from the text of the source: active = GI50 up to about 1.1 µM and inactive = higher.

Legend:
Assay in all cases: NCI anticancer screen, dose series, 48 h
786-0 = test system: 786-0
A498 = test system: A498
A549 = test system: A549
ACHN = test system: ACHN
CCRF-CEM = test system: CCRF-CEM
COLO 205 = test system: COLO 205
DLD-1 = test system: DLD-1
DMS-114 = test system: DMS-114
DMS-273 = test system: DMS-273
EKVX = test system: EKVX
HCC 2998 = test system: HCC 2998
HCT-116 = test system: HCT-116
HL-60 = test system: HL-60
HOP-18 = test system: HOP-18
HOP-62 = test system: HOP-62
HOP-92 = test system: HOP-92
HT-29 = test system: HT-29
IGROV-1 = test system: IGROV-1
K562 = test system: K562
KM-20L2 = test system: KM-20L2
KM12 = test system: KM12
LOX IMVI = test system: LOX IMVI
LXFL 529 = test system: LXFL 529
M19-MEL = test system: M19-MEL
MOLT-4 = test system: MOLT-4
Malme-3M = test system: Malme-3M
NCI-H23 = test system: NCI-H23
NCI-H460 = test system: NCI-H460
NCI-H522 = test system: NCI-H522
OVCAR-3 = test system: OVCAR-3
OVCAR-5 = test system: OVCAR-5
OVCAR-8 = test system: OVCAR-8
RPMI-8226 = test system: RPMI-8226
RXF 393 = test system: RXF 393
RXF 631 = test system: RXF 631
SF-268 = test system: SF-268
SF-295 = test system: SF-295
SF-539 = test system: SF-539
SK-MEL-28 = test system: SK-MEL-28
SK-MEL-2 = test system: SK-MEL-2
SK-MEL-5 = test system: SK-MEL-5
SK-OV-3 = test system: SK-OV-3
SNB-19 = test system: SNB-19
SNB-75 = test system: SNB-75
SNB-78 = test system: SNB-78
SW-620 = test system: SW-620
TK-10 = test system: TK-10
U-251 = test system: U-251
UACC-257 = test system: UACC-257
UO-31 = test system: UO-31
XF498 = test system: XF498
HCT-15 = test system: HCT-15
M14 = test system: M14
SR = test system: SR
CAKI-1 = test system: CAKI-1
NCI-H226 = test system: NCI-H226
OVCAR-4 = test system: OVCAR-4
SN12C = test system: SN12C
UACC-62 = test system: UACC-62

In the case of `Cn1ccc(=NS(=O)(=O)c2ccccc2)cc1`, the GI50 (786-0) is reported as > 100 µM (inactive), the GI50 (A498) is reported as > 100 µM (inactive) and the GI50 (A549) is reported as > 100 µM (inactive). For the same compound, the GI50 (ACHN) was > 100 µM (inactive), the GI50 (CCRF-CEM) was > 100 µM (inactive) and the GI50 (COLO 205) was > 100 µM (inactive). The GI50 (DLD-1) was > 100 µM (inactive), the GI50 (DMS-114) was > 100 µM (inactive) and the GI50 (DMS-273) was > 100 µM (inactive). The GI50 (EKVX) was > 100 µM (inactive), the GI50 (HCC 2998) was > 100 µM (inactive) and the GI50 (HCT-116) was > 100 µM (inactive). The GI50 (HL-60) was > 100 µM (inactive), the GI50 (HOP-18) was 85.3 µM (inactive) and the GI50 (HOP-62) was > 100 µM (inactive). For the same compound, the GI50 (HOP-92) was > 100 µM (inactive), the GI50 (HT-29) was > 100 µM (inactive) and the GI50 (IGROV-1) was > 100 µM (inactive). The GI50 (K562) was > 100 µM (inactive), the GI50 (KM-20L2) was > 100 µM (inactive) and the GI50 (KM12) was > 100 µM (inactive). For the same compound, the GI50 (LOX IMVI) was > 100 µM (inactive), the GI50 (LXFL 529) was > 100 µM (inactive) and the GI50 (M19-MEL) was > 100 µM (inactive). The GI50 (MOLT-4) was > 100 µM (inactive), the GI50 (Malme-3M) was > 100 µM (inactive) and the GI50 (NCI-H23) was > 100 µM (inactive). For the same compound, the GI50 (NCI-H460) was > 100 µM (inactive), the GI50 (NCI-H522) was > 100 µM (inactive) and the GI50 (OVCAR-3) was > 100 µM (inactive). For the same compound, the GI50 (OVCAR-5) was > 100 µM (inactive), the GI50 (OVCAR-8) was > 100 µM (inactive) and the GI50 (RPMI-8226) was > 100 µM (inactive). The GI50 (RXF 393) was > 100 µM (inactive), the GI50 (RXF 631) was > 100 µM (inactive) and the GI50 (SF-268) was > 100 µM (inactive). The GI50 (SF-295) was > 100 µM (inactive), the GI50 (SF-539) was > 100 µM (inactive) and the GI50 (SK-MEL-28) was > 100 µM (inactive). For the same compound, the GI50 (SK-MEL-2) was > 100 µM (inactive), the GI50 (SK-MEL-5) was > 100 µM (inactive) and the GI50 (SK-OV-3) was > 100 µM (inactive). The GI50 (SNB-19) was > 100 µM (inactive), the GI50 (SNB-75) was > 100 µM (inactive) and the GI50 (SNB-78) was > 100 µM (inactive). The GI50 (SW-620) was > 100 µM (inactive), the GI50 (TK-10) was > 100 µM (inactive) and the GI50 (U-251) was > 100 µM (inactive). For the same compound, the GI50 (UACC-257) was > 100 µM (inactive), the GI50 (UO-31) was > 100 µM (inactive) and the GI50 (XF498) was > 100 µM (inactive).
In the case of `O=C(Nc1ccc(Cl)cc1Cl)C(=O)Nn1c(S)nc2ccccc2c1=O`, the GI50 (786-0) is reported as > 100 µM (inactive), the GI50 (A549) is reported as > 100 µM (inactive) and the GI50 (CCRF-CEM) is reported as > 100 µM (inactive). For the same compound, the GI50 (DMS-114) was > 100 µM (inactive), the GI50 (DMS-273) was > 100 µM (inactive) and the GI50 (HCC 2998) was > 100 µM (inactive). For the same compound, the GI50 (HCT-116) was > 100 µM (inactive), the GI50 (HCT-15) was greater than 100 µM and the GI50 (HL-60) was > 100 µM (inactive). For the same compound, the GI50 (HOP-18) was > 100 µM (inactive), the GI50 (K562) was > 100 µM (inactive) and the GI50 (LXFL 529) was > 100 µM (inactive). For the same compound, the GI50 (M14) was > 100 µM (inactive), the GI50 (M19-MEL) was > 100 µM (inactive) and the GI50 (MOLT-4) was > 100 µM (inactive). For the same compound, the GI50 (Malme-3M) was > 100 µM (inactive), the GI50 (NCI-H460) was > 100 µM (inactive) and the GI50 (NCI-H522) was > 100 µM (inactive). The GI50 (OVCAR-3) was > 100 µM (inactive), the GI50 (RPMI-8226) was > 100 µM (inactive) and the GI50 (RXF 393) was > 100 µM (inactive). For the same compound, the GI50 (RXF 631) was > 100 µM (inactive), the GI50 (SF-268) was > 100 µM (inactive) and the GI50 (SK-MEL-28) was > 100 µM (inactive). For the same compound, the GI50 (SK-MEL-2) was > 100 µM (inactive), the GI50 (SK-OV-3) was > 100 µM (inactive) and the GI50 (SNB-78) was > 100 µM (inactive). For the same compound, the GI50 (SR) was > 100 µM (inactive), the GI50 (U-251) was > 100 µM (inactive) and the GI50 (UO-31) was > 100 µM (inactive).
In the case of `Cc1ccc(C2(O)CC(c3ccc([N+](=O)[O-])o3)=NN2C(=O)COc2ccccc2Cl)cc1` (centres undefined), the GI50 (786-0) is reported as 5.75 µM (inactive), the GI50 (A498) is reported as 12.9 µM (inactive) and the GI50 (A549) is reported as 18.1 µM (inactive). For the same compound, the GI50 (ACHN) was 5.08 µM (inactive), the GI50 (CAKI-1) was 19.4 µM (inactive) and the GI50 (CCRF-CEM) was 5.45 µM (inactive). For the same compound, the GI50 (COLO 205) was 3.78 µM (inactive), the GI50 (DLD-1) was 6.08 µM (inactive) and the GI50 (DMS-114) was 12.8 µM (inactive). For the same compound, the GI50 (DMS-273) was 12.9 µM (inactive), the GI50 (EKVX) was 13.6 µM (inactive) and the GI50 (HCC 2998) was 10.4 µM (inactive). The GI50 (HCT-116) was 5.6 µM (inactive), the GI50 (HCT-15) was 4.68 µM and the GI50 (HL-60) was 2.84 µM (inactive). For the same compound, the GI50 (HOP-18) was 20.6 µM (inactive), the GI50 (HOP-62) was 29.2 µM (inactive) and the GI50 (HOP-92) was 27.4 µM (inactive). The GI50 (HT-29) was 4.21 µM (inactive), the GI50 (IGROV-1) was 15.9 µM (inactive) and the GI50 (K562) was 7.26 µM (inactive). For the same compound, the GI50 (KM-20L2) was 8.65 µM (inactive), the GI50 (KM12) was 8.83 µM (inactive) and the GI50 (LOX IMVI) was 5.45 µM (inactive). The GI50 (LXFL 529) was 6.59 µM (inactive), the GI50 (M14) was 8.45 µM (inactive) and the GI50 (M19-MEL) was 3.69 µM (inactive). For the same compound, the GI50 (MOLT-4) was 3.91 µM (inactive), the GI50 (Malme-3M) was 13.8 µM (inactive) and the GI50 (NCI-H226) was 50.5 µM (inactive). For the same compound, the GI50 (NCI-H23) was 12.4 µM (inactive), the GI50 (NCI-H460) was 5.73 µM (inactive) and the GI50 (NCI-H522) was 13.1 µM (inactive). The GI50 (OVCAR-3) was 3.94 µM (inactive), the GI50 (OVCAR-4) was 17.3 µM (inactive) and the GI50 (OVCAR-5) was 32.7 µM (inactive). The GI50 (OVCAR-8) was 11.2 µM (inactive), the GI50 (RPMI-8226) was 3.53 µM (inactive) and the GI50 (RXF 631) was 6.87 µM (inactive). For the same compound, the GI50 (SF-268) was 10.5 µM (inactive), the GI50 (SF-295) was 15.3 µM (inactive) and the GI50 (SF-539) was 17.4 µM (inactive). For the same compound, the GI50 (SK-MEL-28) was 15.2 µM (inactive), the GI50 (SK-MEL-2) was 8.07 µM (inactive) and the GI50 (SK-MEL-5) was 2.75 µM (inactive). For the same compound, the GI50 (SK-OV-3) was 81.1 µM (inactive), the GI50 (SN12C) was 8.22 µM (inactive) and the GI50 (SNB-19) was 14.8 µM (inactive). For the same compound, the GI50 (SNB-75) was 15.3 µM (inactive), the GI50 (SNB-78) was 42.6 µM (inactive) and the GI50 (SR) was 3.24 µM (inactive). The GI50 (SW-620) was 6.7 µM (inactive), the GI50 (TK-10) was 35.7 µM (inactive) and the GI50 (U-251) was 9.68 µM (inactive). For the same compound, the GI50 (UACC-257) was 8.18 µM (inactive), the GI50 (UACC-62) was 3.91 µM (inactive) and the GI50 (UO-31) was 12.5 µM (inactive). For the same compound, the GI50 (XF498) was 16.9 µM (inactive).
